This is an account of results in PubChem BioAssay (NCI).

Test systems include OVCAR-4 ovarian; MALME-3M melanoma; HCC-2998 colon; RPMI-8226 leukemia; OVCAR-5 ovarian; HCT-15 colon; K-562 leukemia; SF-539 CNS; TK-10 renal; SNB-19 CNS.
Holding throughout (experiment): inhibition of tumour cell growth, NCI panel, 48 h

SMILES strings stand for the structures.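 Where inhibition never reached the appropriate level, the endpoint shown equals the highest concentration tested. Otherwise, values were interpolated linearly from a five-concentration, 48-hour dose response in 96-well plates. At the TGI there is no net growth.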

Regarding `CN(/N=C1\C(=O)Nc2ccccc21)c1ccccc1`, the TGI in the assay on OVCAR-4 ovarian, in the assay with MALME-3M melanoma, in the assay with HCC-2998 colon, in the assay on RPMI-8226 leukemia, with OVCAR-5 ovarian and in the assay with HCT-15 colon was above 100 µM throughout. In addition, the TGI with K-562 leukemia, in the assay with SF-539 CNS, in the assay with TK-10 renal and with SNB-19 CNS was above 100 µM throughout.
Consider `O=CC(I)=C(c1ccccc1)c1ccccc1`, for which the TGI was 27.3 µM in the assay on OVCAR-4 ovarian; 30.8 µM with MALME-3M melanoma; 35.8 µM with HCC-2998 colon; above 59 µM in the assay on RPMI-8226 leukemia; 40.7 µM with OVCAR-5 ovarian; 28.4 µM in the assay with HCT-15 colon. For the same molecule, the TGI was above 71 µM in the assay with K-562 leukemia, 45.3 µM in the assay on SF-539 CNS, 44.8 µM in the assay with TK-10 renal and 30.1 µM in the assay with SNB-19 CNS.
On to `O=c1c(F)cn2c(=O)n1CCCCCCCn1c(=O)c(F)cn(c1=O)CCCCCCC2`, for which the TGI was 98.4 µM with OVCAR-4 ovarian; 88.8 µM with MALME-3M melanoma; above 100 µM in the assay on HCC-2998 colon; above 100 µM in the assay on RPMI-8226 leukemia; above 100 µM with OVCAR-5 ovarian; above 100 µM in the assay on HCT-15 colon. Besides, the TGI with K-562 leukemia, in the assay on SF-539 CNS, with TK-10 renal and with SNB-19 CNS was above 100 µM each time.
As to `CC1=NN(C(=O)Cc2ccccc2)C(=O)/C1=C\c1ccc(O)cc1`, the TGI with OVCAR-4 ovarian, in the assay on MALME-3M melanoma, in the assay on HCC-2998 colon, in the assay with RPMI-8226 leukemia, in the assay on OVCAR-5 ovarian and with HCT-15 colon was above 100 µM in each case. Moreover, the TGI in the assay with K-562 leukemia, with SF-539 CNS, in the assay with TK-10 renal and with SNB-19 CNS was above 100 µM in each case.
Take `CCOC1C=CC(=O)C(CO)O1` (stereo not given): the TGI worked out at 26.5 µM in the assay with OVCAR-4 ovarian; 25.8 µM with MALME-3M melanoma; 34.4 µM with HCC-2998 colon; 6 µM in the assay with RPMI-8226 leukemia; 35.2 µM with OVCAR-5 ovarian; 25.3 µM with HCT-15 colon. Further, the TGI stood at 26 µM in the assay on K-562 leukemia, 23.8 µM in the assay with SF-539 CNS, 22.7 µM in the assay on TK-10 renal and 42.9 µM in the assay on SNB-19 CNS.
As to `Cc1ccc2cccc(-c3cccc4ccccc34)c2n1`, the TGI with OVCAR-4 ovarian was above 100 µM; in the assay with MALME-3M melanoma, above 100 µM; in the assay on HCC-2998 colon, 29.1 µM; with RPMI-8226 leukemia, 40.2 µM; with OVCAR-5 ovarian it was 55.5 µM; with HCT-15 colon it was 91.1 µM. Moreover, the TGI with K-562 leukemia is 21 µM; with SF-539 CNS, above 100 µM; with TK-10 renal, 36.2 µM; in the assay with SNB-19 CNS it was above 100 µM.
As for `Cc1c2cccc-2c2cc(O)c3ccccc3c2n1-c1ccc(N(C)C)cc1`, the TGI with OVCAR-4 ovarian stood at 12.1 µM; in the assay with MALME-3M melanoma, 29 µM; in the assay on HCC-2998 colon, 35.1 µM; with RPMI-8226 leukemia, 26.6 µM; with OVCAR-5 ovarian, 24.7 µM; in the assay on HCT-15 colon it was 20 µM. Besides, the TGI amounted to 26.8 µM in the assay on K-562 leukemia, 27.9 µM in the assay with SF-539 CNS, 32.5 µM in the assay on TK-10 renal and 30 µM in the assay with SNB-19 CNS.
With `COC(=O)/C=C(/C=C1/C(C#N)=C(N)N(c2ccc(Cl)cc2)C1(C)/C(=C\C(=O)OC)C(=O)OC)C(=O)OC` (stereo not given), the TGI in the assay with OVCAR-4 ovarian is 60.5 µM; in the assay with MALME-3M melanoma, 58.8 µM; in the assay with HCC-2998 colon, 39.2 µM; in the assay with RPMI-8226 leukemia, above 100 µM; in the assay on OVCAR-5 ovarian it was 48.3 µM; in the assay with HCT-15 colon it was 50.2 µM. Further, the TGI with K-562 leukemia was above 100 µM; in the assay on SF-539 CNS, 32.7 µM; with TK-10 renal, 81 µM; in the assay with SNB-19 CNS, above 100 µM.
`COc1ccc2nc(NC(=O)/C(C#N)=C/c3ccccc3)sc2c1`: the TGI in the assay on OVCAR-4 ovarian is above 100 µM; in the assay on MALME-3M melanoma it was above 100 µM; in the assay on HCC-2998 colon it was above 100 µM; in the assay with RPMI-8226 leukemia, above 84.5 µM; with OVCAR-5 ovarian it was above 100 µM; in the assay on HCT-15 colon, above 100 µM. Further, the TGI was above 95.2 µM with K-562 leukemia, above 100 µM in the assay with SF-539 CNS, 88 µM in the assay on TK-10 renal and above 100 µM with SNB-19 CNS.
In the case of `CCOC(=O)c1c(N2CCCC2)[nH]c(=O)c(C(c2ccc(OC)cc2)c2c(O)c(C(=O)OCC)c(N3CCCC3)[nH]c2=O)c1O`, the TGI with OVCAR-4 ovarian, with MALME-3M melanoma, in the assay on HCC-2998 colon, in the assay with RPMI-8226 leukemia, with OVCAR-5 ovarian and in the assay on HCT-15 colon was above 100 µM each time. Further, the TGI in the assay with K-562 leukemia, in the assay with SF-539 CNS, with TK-10 renal and in the assay with SNB-19 CNS was above 100 µM throughout.
Turning to `COc1ccc(N=Nc2c(-c3c(OC)cc4occc4c3OC)[nH]c(=O)c(C#N)c2C)cc1`, the TGI in the assay on OVCAR-4 ovarian, in the assay on MALME-3M melanoma, in the assay with HCC-2998 colon, in the assay on RPMI-8226 leukemia, in the assay with OVCAR-5 ovarian and in the assay on HCT-15 colon was above 100 µM throughout. Besides, the TGI in the assay on K-562 leukemia, in the assay with SF-539 CNS, in the assay with TK-10 renal and with SNB-19 CNS was above 100 µM each time.
For the molecule `CC(C)Oc1cccc(N2C(n3ccnc3)=Nc3ccncc3S2(=O)=O)c1`, the TGI in the assay with OVCAR-4 ovarian turned out to be 33.7 µM; in the assay with MALME-3M melanoma, 26.6 µM; with HCC-2998 colon it was 31 µM; with RPMI-8226 leukemia, 12.3 µM; in the assay with OVCAR-5 ovarian, 27.6 µM; in the assay with HCT-15 colon it was 32.7 µM. The TGI was determined as 36.6 µM in the assay with K-562 leukemia, 20.1 µM in the assay with SF-539 CNS, 24.5 µM with TK-10 renal and 36 µM with SNB-19 CNS.
Turning to `CN(C)CCN(c1ccccn1)c1ccccn1`, the TGI in the assay with OVCAR-4 ovarian, in the assay on MALME-3M melanoma, in the assay on HCC-2998 colon, in the assay on RPMI-8226 leukemia, in the assay with OVCAR-5 ovarian and in the assay on HCT-15 colon was above 100 µM in each case. In addition, the TGI with K-562 leukemia, in the assay on SF-539 CNS, in the assay on TK-10 renal and in the assay with SNB-19 CNS was above 100 µM each time.
